Molecules are shown by their SMILES.

In assay [1] the target is Human immunodeficiency virus type 1 protease (Human immunodeficiency virus 1, UniProt Q72874). Description: Inhibition of HIV-1 protease.
Assay [2] relates to Human immunodeficiency virus 1. Briefly: Inhibitory concentration was evaluated to inhibit 95% of HIV-1 spread in MT4 cells.

Turning to `O=C(N[C@@H](Cc1ccccc1)[C@@H](O)C[C@@H](Cc1ccccc1)C(=O)N[C@H]1c2ccccc2C[C@H]1O)O[C@H]1CCCOC1`, in assay [1], the IC50 (in general, the point on the concentration scale where inhibition reaches its midpoint) was < 0.03 nM. For the same molecule, the 95% effect level in assay [2] (IC95) was put at 50 nM.

`O=C(N[C@@H](Cc1ccccc1)[C@@H](O)C[C@@H](Cc1ccccc1)C(=O)N[C@H]1c2ccccc2C[C@H]1O)O[C@@H]1CCCOC1`: the IC50 in assay [1] is < 0.03 nM. Further, it took 25 nM to reach the 95% level in assay [2] (IC95). Take `CC(C)(C)NC(=O)[C@@H]1C[C@@H]2CCCC[C@@H]2CN1C[C@@H](O)[C@H](Cc1ccccc1)NC(=O)OC(C)(C)C`: the IC50 in assay [1] was > 3000 nM.

As for `CC(C)(C)NC(=O)[C@@H]1C[C@@H]2CCCC[C@@H]2CN1C[C@@H](O)[C@H](Cc1ccccc1)NC(=O)O[C@H]1CCCOC1`, the IC50 in assay [1] was 392 nM.

On to `CC(C)(C)NC(=O)[C@@H]1C[C@@H]2CCCC[C@@H]2CN1C[C@@H](O)[C@H](Cc1ccccc1)NC(=O)O[C@@H]1C=CCOC1`, for which, in assay [1], it took 48.9 nM to reach half-maximal inhibition (IC50). Molecule `O=C(N[C@@H](Cc1ccccc1)[C@@H](O)C[C@@H](Cc1ccccc1)C(=O)N[C@H]1c2ccccc2C[C@H]1O)O[C@@H]1CCOC1` came in with a half-maximal inhibitory concentration (IC50) in assay [1] of 0.03 nM. In addition, in assay [2], the IC95 (usually the concentration at which the effect reaches the 95% level) was found to be 100 nM. Take `O=C(N[C@@H](Cc1ccccc1)[C@@H](O)C[C@@H](Cc1ccccc1)C(=O)N[C@H]1c2ccccc2C[C@H]1O)OC1CCOCC1`: the midpoint of inhibition in assay [1], the IC50, lay at 1.22 nM. Same read-out and setting: the same measure for `CC(C)(C)NC(=O)[C@@H]1C[C@@H]2CCCC[C@@H]2CN1C[C@@H](O)[C@H](Cc1ccccc1)NC(=O)O[C@H]1C=CCOC1`: 314 nM; for `CC(C)(C)NC(=O)[C@@H]1C[C@@H]2CCCC[C@@H]2CN1C[C@@H](O)[C@H](Cc1ccccc1)NC(=O)O[C@@H]1CCCOC1`: 308 nM. `CC(C)(C)OC(=O)N[C@@H](Cc1ccccc1)[C@@H](O)C[C@@H](Cc1ccccc1)C(=O)N[C@H]1c2ccccc2C[C@H]1O` registered an IC95 in assay [2] of 400 nM. In other words, the sub-micromolar range. `O=C(N[C@@H](Cc1ccccc1)[C@@H](O)C[C@@H](Cc1ccccc1)C(=O)N[C@H]1c2ccccc2C[C@H]1O)OC1CCCC1` came in with an IC50 in assay [1] of 0.33 nM. The molecule further yielded an IC95 in assay [2] of 400 nM.

For the molecule `O=C(N[C@@H](Cc1ccccc1)[C@@H](O)C[C@@H](Cc1ccccc1)C(=O)N[C@H]1c2ccccc2C[C@H]1O)O[C@H]1CCOC1`, the IC50 in assay [1] is < 0.03 nM. This molecule had an IC95 in assay [2] of 3 nM.

Source of the values: ChEMBL document CHEMBL1127030, “3-Tetrahydrofuran and pyran urethanes as high-affinity P2-ligands for HIV-1 protease inhibitors” (J Med Chem, 1993).
